Assay results: US20240122180A1, “FUNGICIDAL HALOMETHYL KETONES AND HYDRATES AND THEIR MIXTURES” (FMC Corporation, priority 2020, published 2024)

Tests used:
[1] = tested on: Puccinia recondita f. sp. tritici (the causal agent of wheat leaf rust); assay: Test B: preventive spray on wheat seedlings, disease rating (100 = 100% control; * 50 ppm, ** 10 ppm, *** 250 ppm); format: in vivo; settings: 100 = 100% disease control; for Test B disease control rating / pest or weed control at 10 ppm: 10 ppm test suspension; for pest or weed control at 10 ppm / pest or weed control at 50 ppm: Puccinia recondita; for pest or weed control at 50 ppm: 50 ppm test suspension
Source text: (§1) General protocol for preparing test suspensions for Tests A-E: the test compounds were first dissolved in acetone in an amount equal to 3% of the final volume and then suspended at the desired concentration (in ppm) in acetone and purified water (50/50 mix by volume) containing 250 ppm of the surfactant […] (polyhydric alcohol esters). The resulting test suspensions were then used in Tests A-E.
(§2) The test solution was sprayed to the point of run-off on wheat seedlings. The following day the seedlings were inoculated with a spore suspension of Puccinia recondita f. sp. tritici (the causal agent of wheat leaf rust) and incubated in a saturated atmosphere at 20° C. for 24 h, and then moved to a growth chamber at 20° C. for 6 days, after which time disease ratings were made.
(§3) Results for Tests A-E are given in Table A. In the Table, a rating of 100 indicates 100% disease control and a rating of 0 indicates no disease control (relative to the controls). An asterisk “*” or a double asterisk “**” or a triple asterisk “***” next to the rating value indicates a 50 ppm, 10 ppm and 250 ppm test suspension was used, respectively. A dash (-) indicates the compound was not tested.

[2] = tested on: Phakopsora pachyrhizi (the causal agent of Asian soybean rust); assay: Test A: preventive spray on soybean seedlings, visual disease rating (100 = 100% control; * 50 ppm, ** 10 ppm, *** 250 ppm); format: in vivo; settings: 100 = 100% disease control
Source text: as §1
as §2, with “soybean” for “wheat”, “Phakopsora pachyrhizi” for “Puccinia recondita f. sp. tritici”, “Asian soybean” for “wheat leaf”, “22°” for “20°”, “8” for “6”, “time visual” for “time”
as §3

[3] = 10 ppm test suspension, soybean seedlings
[4] = 50 ppm test suspension, 0 = no control

CCOC(=O)c1cnn(C(C)c2ccc(OCC3(C(F)(F)F)OCCO3)cc2)c1 (racemic) [compound 26]
Test B disease control rating ([1]; wheat seedlings): 0% | Test A disease control rating [2, 3]: 99%

CCOC(=O)c1cnn(Cc2ccc(OCC3(C(F)(F)F)OCC(C)(C)O3)cc2)c1 (stereo not shown) [Compound 12, ethyl 1-[[4-[[4,4-dimethyl-2-(trifluoromethyl)-1,3-dioxolan-2-yl]methoxy]-phenyl]methyl]-1H-pyrazole-4-carboxylate]
pest or weed control at 10 ppm ([1]; wheat seedlings): 0%

O=C(NCC(F)(F)F)c1csc(Cc2ccc(OCC(O)(O)C(F)(F)F)cc2)n1 [Compound 68]
Test B disease control rating ([1]; wheat seedlings): 95% | Test A disease control rating [2, 3]: 100%

O=C(NCC1CC1)c1csc(Cc2ccc(OCC(O)(O)C(F)(F)F)cc2)n1 [Compound 69]
Test B disease control rating ([1]; wheat seedlings): 96% | Test A disease control rating [2, 3]: 98%

CC(C)COC(=O)c1cnn(Cc2ccc(OCC3(C(F)(F)F)OCCO3)cc2)c1 [Compound 126, 2-methylpropyl 1-[[4-[[2-(trifluoromethyl)-1,3-dioxolan-2-yl]methoxy]phenyl]methyl]-1H-pyrazole-4-carboxylate]
pest or weed control at 10 ppm ([1]; wheat seedlings): 0%

O=C(OCC1CC1)c1cnn(Cc2ccc(OCC3(C(F)(F)F)OCCO3)cc2)c1 [Compound 127, cyclopropylmethyl 1-[[4-[[2-(trifluoromethyl)-1,3-dioxolan-2-yl]methoxy]phenyl]methyl]-1H-pyrazole-4-carboxylate]
pest or weed control at 10 ppm ([1]; wheat seedlings): 0%

CCOC(=O)c1cnn(CCc2ccc(O/C=C(\OCC)C(F)(F)F)cc2)c1 [Compound 132, ethyl 1-[2-[4-[[(1Z)-2-ethoxy-3,3,3-trifluoro-1-propen-1-yl]oxy]phenyl]ethyl]-1H-pyrazole-4-carboxylate]
pest or weed control at 10 ppm ([1]; wheat seedlings): 0%

CCOC(=O)c1csc(Cc2ccc(OCC(O)(O)C(F)(F)F)cc2)n1 [Compound 136]
Test B disease control rating ([1]; wheat seedlings): 83% | Test A disease control rating [2, 3]: 98%

COCCOC(=O)c1cnn(Cc2ccc(OCC3(C(F)(F)F)OCCO3)cc2)c1 [Compound 162, 2-methoxyethyl 1-[[4-[[2-(trifluoromethyl)-1,3-dioxolan-2-yl]methoxy]phenyl]methyl]-1H-pyrazole-4-carboxylate]
pest or weed control at 10 ppm ([1]; wheat seedlings): 0%

CC#CCOC(=O)c1cnn(Cc2ccc(OCC3(C(F)(F)F)OCCO3)cc2)c1 [Compound 163, 2-butyn-1-yl 1-[[4-[[2-(trifluoromethyl)-1,3-dioxolan-2-yl]methoxy]phenyl]methyl]-1H-pyrazole-4-carboxylate]
pest or weed control at 10 ppm ([1]; wheat seedlings): 0%

N#CCCCOC(=O)c1cnn(Cc2ccc(OCC3(C(F)(F)F)OCCO3)cc2)c1 [Compound 171, 3-cyanopropyl 1-[[4-[[2-(trifluoromethyl)-1,3-dioxolan-2-yl]methoxy]phenyl]methyl]-1H-pyrazole-4-carboxylate]
pest or weed control at 10 ppm ([1]; wheat seedlings): 0%

COCCNC(=O)c1csc(Cc2ccc(OCC(O)(O)C(F)(F)F)cc2)n1 [Compound 223]
Test B disease control rating ([1]; wheat seedlings): 0% | Test A disease control rating [2, 3]: 75%

CCOC(=O)c1ccn(Cc2ccc(O/C=C(\OCC)C(F)(F)F)cc2)n1 [Compound 231, ethyl 1-[[4-[[(1Z)-2-ethoxy-3,3,3-trifluoro-1-propen-1-yl]oxy]phenyl]methyl]-1H-pyrazole-3-carboxylate]
pest or weed control at 10 ppm ([1]; wheat seedlings): 0%

CCOC(=O)c1cnn(Cc2ccc(O/C=C(\OCC)C(F)(F)F)c(F)c2)c1 [Compound 262, ethyl 1-[[4-[[(1Z)-2-ethoxy-3,3,3-trifluoro-1-propen-1-yl]oxy]-3-fluorophenyl]methyl]-1H-pyrazole-4-carboxylate]
pest or weed control at 10 ppm ([1]; 0 = no control): 0%

CCOC(=O)c1cnn(Cc2cccc(OCC(O)(O)C(F)(F)F)c2)c1 [Compound 266, ethyl 1-[[3-(3,3,3-trifluoro-2,2-dihydroxypropoxy)phenyl]methyl]-1H-pyrazole-4-carboxylate]
pest or weed control at 50 ppm ([1]; 0 = no control): 74%

CCOC(=O)c1cnn(COCc2ccc(O/C=C(\OCC)C(F)(F)F)cc2)c1 [Compound 297, ethyl 1-[[4-[[(1Z)-2-ethoxy-3,3,3-trifluoro-1-propen-1-yl]oxy]phenylmethoxy]methyl]-1H-pyrazole-4-carboxylate]
pest or weed control at 10 ppm ([1]; 0 = no control): 0%

CCO/C(=C\Oc1cccc(Cn2cc(C(=O)OC)cn2)c1)C(F)(F)F [Compound 330, methyl 1-[[3-[[(1Z)-2-ethoxy-3,3,3-trifluoro-1-propen-1-yl]oxy]phenyl]methyl]-1H-pyrazole-4-carboxylate]
pest or weed control at 10 ppm ([1]; 0 = no control): 0%

CCCOC(=O)c1cnn(Cc2cccc(O/C=C(\OCC)C(F)(F)F)c2)c1 [Compound 331, propyl 1-[[3-[[(1Z)-2-ethoxy-3,3,3-trifluoro-1-propen-1-yl]oxy]phenyl]methyl]-1H-pyrazole-4-carboxylate]
pest or weed control at 10 ppm ([1]; 0 = no control): 0%

CCOC(=O)c1cnn(COc2ccc(OCC(O)(O)C(F)(F)F)cc2)c1 [Compound 366, ethyl 1-[[4-(3,3,3-trifluoro-2,2-dihydroxypropoxy)phenoxy]methyl]-1H-pyrazole-4-carboxylate]
pest or weed control at 10 ppm ([1]; 0 = no control): 55% | pest or weed control at 10 ppm ([2]; Phakopsora pachyrhizi, 10 ppm test suspension, 0 = no control): 79%

CCOC(=O)c1cnn(Cc2ccc(OCC(O)(NO)C(F)(F)F)cc2)c1 (stereo not shown) [compound 10]
Test B disease control rating ([1]; wheat seedlings): 86% | Test A disease control rating [2, 3]: 100%

COC(=O)c1cnn(Cc2ccc(OCC3(C(F)(F)F)OCCO3)cc2)c1 [compound 13]
Test B disease control rating ([1]; wheat seedlings): 0% | Test A disease control rating [2, 3]: 99%

CC(C)OC(=O)c1cnn(Cc2ccc(OCC3(C(F)(F)F)OCCO3)cc2)c1 [compound 14]
Test B disease control rating ([1]; wheat seedlings): 0% | Test A disease control rating [2, 3]: 100%

C#CCOC(=O)c1cnn(Cc2ccc(OCC3(C(F)(F)F)OCCO3)cc2)c1 [compound 15]
Test B disease control rating ([1]; wheat seedlings): 0% | Test A disease control rating [2, 3]: 100%

CCCCCCOC(=O)c1cnn(Cc2ccc(OCC3(C(F)(F)F)OCCO3)cc2)c1 [compound 16]
Test B disease control rating ([1]; wheat seedlings): 0% | Test A disease control rating [2, 3]: 99%

O=C(OCc1ccc(Cl)c(Cl)c1)c1cnn(Cc2ccc(OCC3(C(F)(F)F)OCCO3)cc2)c1 [compound 17]
Test B disease control rating ([1]; wheat seedlings): 0% | Test A disease control rating [2, 3]: 100%

O=C(OCc1ccc(F)c(F)c1)c1cnn(Cc2ccc(OCC3(C(F)(F)F)OCCO3)cc2)c1 [compound 18]
Test B disease control rating ([1]; wheat seedlings): 0% | Test A disease control rating [2, 3]: 100%

CCOC(=O)c1cnn(Cc2ccc(OCC3(C(F)(F)F)OC(=O)CS3)cc2)c1 (stereo not shown) [compound 20]
Test B disease control rating ([1]; wheat seedlings): 86% | Test A disease control rating [2, 3]: 98%

CCOC(=O)c1cnn(Cc2ccc(OCC3(C(F)(F)F)NCCO3)cc2)c1 (stereo not shown) [compound 21]
Test B disease control rating ([1]; wheat seedlings): 23% | Test A disease control rating [2, 3]: 84%

CN(C)C(=O)C1=NOC(c2ccc(OCC3(C(F)(F)F)OCCO3)cc2)C1 (stereo not shown) [compound 22]
Test B disease control rating ([1]; wheat seedlings): 0% | Test A disease control rating [2, 3]: 38%

CCS(=O)(=O)Cc1ccc(OCC2(C(F)(F)F)OCCO2)cc1 [compound 23]
Test B disease control rating ([1]; wheat seedlings): 19% | Test A disease control rating [2, 3]: 0%

CS(=O)(=O)c1ccc(OCC2(C(F)(F)F)OCCO2)cc1 [compound 24]
Test B disease control rating ([1]; wheat seedlings): 91% | Test A disease control rating [2, 3]: 81%

CN(C)S(=O)(=O)c1ccc(OCC2(C(F)(F)F)OCCO2)cc1 [compound 25]
Test B disease control rating ([1]; wheat seedlings): 0% | Test A disease control rating [2, 3]: 0%

COC(=O)NN=Cc1ccc(OCC2(C(F)(F)F)OCCO2)cc1 [compound 27]
Test B disease control rating ([1]; wheat seedlings): 0% | Test A disease control rating [2, 3]: 0%

FC(F)(F)C1(COc2ccc(OCC3(C(F)(F)F)OCCO3)cc2)OCCO1 [compound 28]
Test B disease control rating ([1]; wheat seedlings): 0% | Test A disease control rating [2, 3]: 0%

OC(O)(CCc1ccc(Cn2ccc3ccccc32)cc1)C(F)(F)F [compound 30]
Test B disease control rating ([1]; wheat seedlings): 0% | Test A disease control rating [2, 3]: 0%

CS(=O)(=O)c1ccc(OCC(O)(O)C(F)(F)F)cc1 [compound 31]
Test B disease control rating ([1]; wheat seedlings): 93% | Test A disease control rating [2, 3]: 44%

COC(=O)NN=Cc1ccc(OCC(O)(O)C(F)(F)F)cc1 [compound 33]
Test B disease control rating ([1]; wheat seedlings): 86% | Test A disease control rating [2, 3]: 96%

CCOC(=O)c1cnn(Cc2cccc(OCC3(C(F)(F)F)OCCO3)c2)c1 [compound 146]
pest or weed control at 50 ppm ([1]; wheat seedlings): 0%

N#Cc1cccc(OCC2(C(F)(F)F)OCCO2)c1 [compound 147]
pest or weed control at 50 ppm ([1]; wheat seedlings): 0%

O=[N+]([O-])c1cccc(OCC2(C(F)(F)F)OCCO2)c1 [compound 165]
pest or weed control at 10 ppm ([1]; wheat seedlings): 0%

O=Cc1cccc(OCC(O)(O)C(F)(F)F)c1 [compound 305]
pest or weed control at 10 ppm ([1]; 0 = no control): 0%

CCO/C(=C\Oc1cccc(Cn2cc(C(=O)NC3CCCC3)cn2)c1)C(F)(F)F [compound 390]
Test A disease control rating [2, 4]: 0%

CCO/C(=C\Oc1cccc(Cn2cc(C(=O)NC3CC3)cn2)c1)C(F)(F)F [compound 391]
Test A disease control rating [2, 4]: 0%
